Assay [1] has as its target T1, human B1R receptor (bradykinin 1 receptor) (Homo sapiens, UniProt P46663).
T1 construct: host or cells: CHO K1 cells (hB1R cells)
T1 sequence (P46663 1-353): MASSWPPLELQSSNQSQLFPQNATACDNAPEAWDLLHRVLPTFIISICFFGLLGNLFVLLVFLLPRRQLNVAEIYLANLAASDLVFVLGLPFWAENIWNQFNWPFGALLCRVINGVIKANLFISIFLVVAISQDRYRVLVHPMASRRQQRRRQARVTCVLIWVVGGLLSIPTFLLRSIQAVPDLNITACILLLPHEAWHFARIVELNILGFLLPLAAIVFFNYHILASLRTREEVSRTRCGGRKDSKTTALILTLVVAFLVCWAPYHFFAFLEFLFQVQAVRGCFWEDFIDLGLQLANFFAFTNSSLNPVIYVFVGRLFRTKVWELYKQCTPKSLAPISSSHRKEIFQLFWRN
The experiment in a line: FLIPR Ca2+ assay (Fluo-4) on CHO K1 cells stably transfected with the human B1R gene; % activation and % inhibition at 10 μM. The assay is classed as cell-based. The note with it: CHO K1 hB1R cells, Ca2+ inflow after 0.5 nM Lys-Des-Arg9-bradykinin; for inhibition at 10 µM: CHO-K1, test substance 10 μM, read-out: B1R antagonism, human [10 μM] % inhibition. In outline:
(§1)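 CHO K1 cells stably expressing human or rat B1R, Fluo-4 loaded, read by FLIPR (peak fluorescence). Compound at 10 µM first gives % activation versus agonist; after 10 min, agonist (human: 0.5 nM Lys-Des-Arg9-bradykinin; rat: 100 nM Des-Arg9-bradykinin) gives % inhibition relative to maximal inhibition.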

Assay [2] addresses T2, B1R receptor of the rat (bradykinin 1 receptor) (Rattus norvegicus, UniProt P97583).
T2 construct: host or cells: CHO K1 cells (rB1R cells)
T2 sequence (P97583 1-337): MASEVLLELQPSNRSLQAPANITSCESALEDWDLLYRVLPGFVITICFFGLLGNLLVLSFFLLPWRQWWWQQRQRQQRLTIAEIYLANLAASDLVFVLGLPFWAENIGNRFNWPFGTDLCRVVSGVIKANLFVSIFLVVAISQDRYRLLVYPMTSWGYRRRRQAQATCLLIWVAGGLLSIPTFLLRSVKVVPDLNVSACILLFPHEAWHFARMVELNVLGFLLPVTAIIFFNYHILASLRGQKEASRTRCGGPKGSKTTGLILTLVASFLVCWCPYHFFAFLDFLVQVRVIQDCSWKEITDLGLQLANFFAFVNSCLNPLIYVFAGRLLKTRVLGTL
The experiment in a line: FLIPR Ca2+ assay (Fluo-4) on CHO K1 cells stably transfected with the B1R gene of the rat; % activation and % inhibition at 10 μM. The assay is classed as cell-based. The note with it: CHO K1 rB1R cells, Ca2+ inflow after 100 nM Des-Arg9-bradykinin; for inhibition at 10 µM: CHO-K1, test substance 10 μM, read-out: B1R antagonism, rat [10 μM] % inhibition. In outline:
as §1

The text below walks through data of patent publication US8580965B2, “Substituted sulfonamide compounds” (Gruenenthal GmbH, priority 2006, dated 2013).

Where a name gives a salt, the structure may show the parent alone.

The inhibition is the change of the read-out against control, counted positive when it falls. In the case of `Cc1cc(Cl)cc(Cl)c1S(=O)(=O)N(C)CCOCC(=O)N1CCC(O)(c2ccc(Cl)cc2)CC1` [Example 104, 2,4-dichloro-N-(2-(2-(4-(4-chlorophenyl)-4-hydroxypiperidin-1-yl)-2-oxoethoxy)ethyl)-N,6-dimethylphenylsulfonamide], the inhibition at 10 µM in assay [1] is 99.7%; in assay [2], 95.8%.
On the same counts, the results for `Cc1cc(Cl)cc(Cl)c1S(=O)(=O)N(C)CCOCC(=O)N1CCC(O)(c2ccccc2)CC1` [Example 105, 2,4-dichloro-N-(2-(2-(4-hydroxy-4-phenylpiperidin-1-yl)-2-oxoethoxy)ethyl)-N,6-dimethylphenylsulfonamide] are 98.6% and 96.1%.
As for `Cc1cc(Cl)cc(Cl)c1S(=O)(=O)N(C)CCOCC(=O)N1CCC(O)(Cc2ccccc2)CC1` [Example 106, N-{2-[2-(4-benzyl-4-hydroxy-piperidin-1-yl)-2-oxo-ethoxy]-ethyl}-2,4-dichloro-6,N-dimethyl-phenylsulfonamide], the inhibition at 10 µM in assay [1] stood at 97.8%; in assay [2], 96.1%.
Take `O=C(COC1CCN(S(=O)(=O)c2c(Cl)cc(Cl)cc2Cl)C1)N1CCC(O)(c2ccc(Cl)cc2)CC1` (centres unmarked) [Example 107, 1-(4-(4-chlorophenyl)-4-hydroxypiperidin-1-yl)-2-(1-(2,4,6-trichlorophenylsulfonyl)pyrrolidin-3-yloxy)ethanone]: the results for the inhibition at 10 µM in assay [1] and in assay [2] were 75.5% and 71.9%, respectively.
With `O=C(COC1CCN(S(=O)(=O)c2c(Cl)cc(Cl)cc2Cl)C1)N1CCC(O)(c2ccccc2)CC1` (centres unmarked) [Example 108, 1-(4-hydroxy-4-phenylpiperidin-1-yl)-2-(1-(2,4,6-trichlorophenylsulfonyl)pyrrolidin-3-yloxy)ethanone], the results for the inhibition at 10 µM in assay [1] and in assay [2] were 54.8% and 54.5%, respectively.
As for `O=C(COC1CCN(S(=O)(=O)c2c(Cl)cc(Cl)cc2Cl)C1)N1CCC(O)(Cc2ccccc2)CC1` (centres unmarked) [Example 109, 1-(4-benzyl-4-hydroxy-piperidin-1-yl)-2-[1-(2,4,6-trichloro-phenylsulfonyl)-pyrrolidin-3-yloxy]-ethanone], the inhibition at 10 µM amounted to 103% in assay [1] and 82.5% in assay [2].
With `Cc1cc(S(=O)(=O)N2CCCCC2CCC(=O)N2CCC(O)(c3cccnc3)CC2)c(C)cc1Cl` (centres unmarked) [Example 111, 3-(1-(4-chloro-2,5-dimethylphenylsulfonyl)piperidin-2-yl)-1-(4-hydroxy-4-(pyridin-3-yl)piperidin-1-yl)propan-1-one hydrochloride], the inhibition at 10 µM in assay [1] was 97.8%; in assay [2], 85.9%.
Consider `COc1cc(C)c(S(=O)(=O)N2CCCCC2CCC(=O)N2CCC(O)(c3cccnc3)CC2)c(C)c1` (centres unmarked) [Example 112, 1-(4-hydroxy-4-(pyridin-3-yl)piperidin-1-yl)-3-(1-(4-methoxy-2,6-dimethylphenylsulfonyl)piperidin-2-yl)propan-1-one], for which the inhibition at 10 µM was 106% in assay [1] and 101% in assay [2].
As for `Cc1cc(S(=O)(=O)N(C)CCCC(=O)N2CCC(O)(c3cccnc3)CC2)c(C)cc1Cl` [Example 113, 4-chloro-N-(4-(4-hydroxy-4-(pyridin-3-yl)piperidin-1-yl)-4-oxobutyl)-N,2,5-trimethylphenylsulfonamide hydrochloride], the inhibition at 10 µM was found to be 94.8% in assay [1] and 51.1% in assay [2].
On the same counts, the results for `CN(CCCC(=O)N1CCC(O)(c2cccnc2)CC1)S(=O)(=O)c1ccc2ccccc2c1` [Example 115, N-(4-(4-hydroxy-4-(pyridin-3-yl)piperidin-1-yl)-4-oxobutyl)-N-methylnaphthalene-2-sulfonamide] are 55.2% and 44.3%.
`O=C(CCC1CCCCN1S(=O)(=O)c1ccc2ccccc2c1)N1CCC(O)(c2cccnc2)CC1` (centres unmarked) [Example 117, 1-(4-hydroxy-4-(pyridin-3-yl)piperidin-1-yl)-3-(1-(naphthalen-2-ylsulfonyl)piperidin-2-yl)propan-1-one]: the inhibition at 10 µM in assay [1] worked out at 84.8%; in assay [2], 24.2%.
For the compound `O=C(CCC1CCCCN1S(=O)(=O)c1ccc(Cl)cc1Cl)N1CCC(O)(c2cccnc2)CC1` (centres unmarked) [Example 118, 3-(1-(2,4-dichlorophenylsulfonyl)piperidin-2-yl)-1-(4-hydroxy-4-(pyridin-3-yl)piperidin-1-yl)propan-1-one], the values for the inhibition at 10 µM in assay [1] and in assay [2] were 101% and 97.9%, respectively.
For the compound `Cc1cc(S(=O)(=O)N2CCCCC2CCC(=O)N2CCC(O)(c3ccccn3)CC2)c(C)cc1Cl` (centres unmarked) [Example 119, 3-(1-(4-chloro-2,5-dimethylphenylsulfonyl)piperidin-2-yl)-1-(4-hydroxy-4-(pyridin-2-yl)piperidin-1-yl)propan-1-one], the inhibition at 10 µM is 82.6% in assay [1] and 22.4% in assay [2].
The like results for `Cc1cc(S(=O)(=O)N2CCCCC2CCC(=O)N2CCC(O)(c3cccc(F)c3)CC2)c(C)cc1Cl` (centres unmarked) [Example 120, 3-(1-(4-chloro-2,5-dimethylphenylsulfonyl)piperidin-2-yl)-1-(4-(3-fluorophenyl)-4-hydroxypiperidin-1-yl)propan-1-one] were, in that order, 58.4% and 45.9%.
Take `COc1cc(C)c(S(=O)(=O)N(C)CCCCC(=O)N2CCC(O)(c3cccnc3)CC2)c(C)c1` [Example 121, N-(5-(4-hydroxy-4-(pyridin-3-yl)piperidin-1-yl)-5-oxopentyl)-4-methoxy-N,2,6-trimethylphenylsulfonamide]: the inhibition at 10 µM is 100% in assay [1] and 57.1% in assay [2].
Take `Cc1cc(S(=O)(=O)N2CCCCC2CCC(=O)N2CCC(O)(c3cccnc3)CC2)c(C)cc1Cl` (centres unmarked) [Example 122, 3-(1-(4-chloro-2,5-dimethylphenylsulfonyl)piperidin-2-yl)-1-(4-hydroxy-4-(pyridin-3-yl)piperidin-1-yl)propan-1-one]: in assay [1] (test substance 10 μM), the “B1R antagonism, human [10 μM] % inhibition” value is given as 98.39%. Also, in assay [2] (test substance 10 μM), the “B1R antagonism, rat [10 μM] % inhibition” value is reported as 97.87%.
`O=C(CCC1CCCCN1S(=O)(=O)c1cccc(C(F)(F)F)c1)N1CCC(O)(c2ccc(Br)cc2)CC1` (centres unmarked) [Example 123, 1-(4-(4-bromophenyl)-4-hydroxypiperidin-1-yl)-3-(1-(3-(trifluoromethyl)phenylsulfonyl)piperidin-2-yl)propan-1-one]: the figures for the inhibition at 10 µM in assay [1] and in assay [2] were 47.9% and 54.7%, respectively.
`CN(c1ccccc1CCC(=O)N1CCC(O)(c2ccc(Cl)c(C(F)(F)F)c2)CC1)S(=O)(=O)c1ccc(Cl)c(Cl)c1` [Example 124, 3,4-dichloro-N-(2-(3-(4-(4-chloro-3-(trifluoromethyl)phenyl)-4-hydroxypiperidin-1-yl)-3-oxopropyl)phenyl)-N-methylphenylsulfonamide]: the inhibition at 10 µM in assay [1] amounted to 41%; in assay [2], 61.6%.
Regarding `CN(c1ccccc1CCC(=O)N1CCC(O)(c2cccnc2)CC1)S(=O)(=O)c1ccc(Cl)c(Cl)c1` [Example 125, 3,4-dichloro-N-(2-(3-(4-hydroxy-4-(pyridin-3-yl)piperidin-1-yl)-3-oxopropyl)phenyl)-N-methylphenylsulfonamide], the inhibition at 10 µM in assay [1] is 93.2%; in assay [2] it was 91.4%.
`COc1cc(C)c(S(=O)(=O)N2CCCCC2COCC(=O)N2CCC(O)(c3cccnc3)CC2)c(C)c1` (centres unmarked) [Example 127, 1-(4-hydroxy-4-(pyridin-3-yl)piperidin-1-yl)-2-((1-(4-methoxy-2,6-dimethylphenylsulfonyl)piperidin-2-yl)methoxy)ethanone]: the inhibition at 10 µM amounted to 104% in assay [1] and 101% in assay [2].
Turning to `COc1cc(C)c(S(=O)(=O)N2Cc3ccccc3C[C@H]2COCC(=O)N2CCC(O)(c3cccnc3)CC2)c(C)c1` [Example 128, (S)-1-(4-hydroxy-4-(pyridin-3-yl)piperidin-1-yl)-2-((2-(4-methoxy-2,6-dimethylphenylsulfonyl)-1,2,3,4-tetrahydroisoquinolin-3-yl)methoxy)ethanone], the inhibition at 10 µM is 101% in assay [1] and 98.8% in assay [2].
The like results for `O=C(COC[C@@H]1Cc2ccccc2CN1S(=O)(=O)c1ccc(Cl)cc1Cl)N1CCC(O)(c2cccnc2)CC1` [Example 129, (S)-2-((2-(2,4-dichlorophenylsulfonyl)-1,2,3,4-tetrahydroisoquinolin-3-yl)methoxy)-1-(4-hydroxy-4-(pyridin-3-yl)piperidin-1-yl)ethanone] were, in that order, 103% and 97.3%.
